Experimental data published in patent US20100041089A1, “IMPROVED METHOD FOR DETECTING CHEMICAL […]” (priority 2006, published 2010).

System: yeast genes (expressed mRNA)
Test: DNA chip measurement of expressed mRNA of yeast genes after culture with a toxic chemical substance
Format: cell-based, Saccharomyces cerevisiae S288C
Experimental: Yeast (Saccharomyces cerevisiae S288C (a SUC2mal mel gap2 CUP1)) were cultured at 25° C. on YPD medium (yeast extract 1%, polypeptone 2%, glucose 2%). One of toxic chemical substances was added to the cell at logarithmic growth phase, and the cell was further cultured for two hours. Cell was cultured without any chemical substance in the same condition, and was used as a control. Concentrations of the chemical substances were defined to inhibit the growth of the yeast but not lead to death.
After the completion of cultivation, the culture was centrifuged to collect the cells. To the cells, sodium acetate buffer (50 mM sodium acetate, 10 mM EDTA, 1% SDS) was added, and the mixture was shaken at 65° C. for five minutes, followed by returning to room temperature, and obtaining the supernatant, which procedure was repeated two times. To the supernatant, ½ amount of a solution of phenol/chloroform (1:1) was added, and the mixture was centrifuged to give a supernatant, an equal amount of chloroform was added, and the mixture was centrifuged to give a supernatant. To the supernatant, an equal amount of isopropanol containing 0.3 M sodium acetate was added, and the mixture was allowed to stand at room temperature for 30 minutes, after which the mixture was centrifuged to give sediment of the whole RNAs. Seventy % ethanol was added to the sediment, and the mixture was again centrifuged to give sediment, which was then dried and dissolved in water. mRNA was isolated from the whole RNAs as followings. In view of the fact that a poly A chain is attached to the 3′ terminus of mRNA, a polynucleotide having a poly T structure which was immobilized on the surface of latex beads was used to trap the mRNA, and then the mRNA was washed and eluted with spine column (Oligotex-dT30<Super>mRNA Purification Kit, Takara). Reverse transcription of the mRNA was conducted with a reverse transcriptase (Super Script II Reverse Transcriptase; catalogue No. 18064-014, GibcoBRL) using fluorescence-labeled nucleotides to give cDNAs that were introduced with Cy3-dUTP or Cy5-dUTP during the reverse transcription.
The labeled cDNAs were dissolved in TE buffer (10 mM Tris-HCl/1 mM EDTA, pH 8.0), and the solution was dropped on the DNA chip containing the whole genes of yeast (DNA Chip Research Inc. Japan) so that the cDNAs were hybridized on the DNA chip at 65° C. for over 12 hours. The fluoresces intensity of the DNA chip was read with a scanner, and the ratio relative to the fluorescence intensity resulting from the absence of chemical substance was estimated as the following, which is shown in Tables 1 to 9.
In the Tables, “Intensity” indicated in the rightmost column is a value of the level of expressed mRNA of each gene in control cells as divided by the average level of the expressions of the whole genes. A gene of which mRNA level is lower in control, and is higher in cases of addition of chemical substance, is especially useful in the detection of toxic substances.
Here, when a ratio of an amount of mRNA expressed in the presence of the chemical substance to an amount of mRNA expressed in the absence of the chemical substance is two or more, then it is considered significant.

Compound: N#Cc1c(Cl)c(Cl)c(Cl)c(C#N)c1Cl [(9), 2,4,5,6-Tetrachloro-1,3-benzenedicarbonitrile]
- The level of expressed mRNA in the presence of chemical substance/The level of expressed mRNA in the absence of chemical substance (yeast gene YFL010C, cultured two hours with substance): 3.1
- The level of expressed mRNA in the presence of chemical substance/The level of expressed mRNA in the absence of chemical substance (yeast gene YFL014W, DNA repair protein genes, cultured two hours with substance): 13.1
- The level of expressed mRNA in the presence of chemical substance/The level of expressed mRNA in the absence of chemical substance (yeast gene YFL024C, cultured two hours with substance): 0.5
- The level of expressed mRNA in the presence of chemical substance/The level of expressed mRNA in the absence of chemical substance (yeast gene YFL030W, metabolism protein genes): 24.5
- The level of expressed mRNA in the presence of chemical substance/The level of expressed mRNA in the absence of chemical substance (yeast gene YFL032W, cultured two hours with substance): 0.5
- The level of expressed mRNA in the presence of chemical substance/The level of expressed mRNA in the absence of chemical substance (yeast gene YFL056C): 162.3
- The level of expressed mRNA in the presence of chemical substance/The level of expressed mRNA in the absence of chemical substance (yeast gene YFL056C, cultured for two hours with substance): 162.3
- The level of expressed mRNA in the presence of chemical substance/The level of expressed mRNA in the absence of chemical substance (yeast gene YFL057C): 51.8
- The level of expressed mRNA in the presence of chemical substance/The level of expressed mRNA in the absence of chemical substance (yeast gene YFL057C, cultured for two hours with substance): 51.8
- The level of expressed mRNA in the presence of chemical substance/The level of expressed mRNA in the absence of chemical substance (yeast gene YFR020W, cultured two hours with substance): 3.7
- The level of expressed mRNA in the presence of chemical substance/The level of expressed mRNA in the absence of chemical substance (yeast gene YFR030W): 24.1
- The level of expressed mRNA in the presence of chemical substance/The level of expressed mRNA in the absence of chemical substance (yeast gene YFR042W, cultured two hours with substance): 2.8
- The level of expressed mRNA in the presence of chemical substance/The level of expressed mRNA in the absence of chemical substance (yeast gene YGL037C, cultured two hours with substance): 2.1
- The level of expressed mRNA in the presence of chemical substance/The level of expressed mRNA in the absence of chemical substance (yeast gene YGL047W, cultured two hours with substance): 4.5
- The level of expressed mRNA in the presence of chemical substance/The level of expressed mRNA in the absence of chemical substance (yeast gene YGL053W, cultured two hours with substance): 3.3
- The level of expressed mRNA in the presence of chemical substance/The level of expressed mRNA in the absence of chemical substance (yeast gene YGL091C, DNA repair protein genes, cultured two hours with substance): 10.8
- The level of expressed mRNA in the presence of chemical substance/The level of expressed mRNA in the absence of chemical substance (yeast gene YGL098W, cultured two hours with substance): 1.2
- The level of expressed mRNA in the presence of chemical substance/The level of expressed mRNA in the absence of chemical substance (yeast gene YGL104C): 4.6
- The level of expressed mRNA in the presence of chemical substance/The level of expressed mRNA in the absence of chemical substance (yeast gene YGL121C, cultured two hours with substance): 7.0
- The level of expressed mRNA in the presence of chemical substance/The level of expressed mRNA in the absence of chemical substance (yeast gene YGL136C, cultured two hours with substance): 1.3
- The level of expressed mRNA in the presence of chemical substance/The level of expressed mRNA in the absence of chemical substance (yeast gene YGL227W, cultured two hours with substance): 2.4
- The level of expressed mRNA in the presence of chemical substance/The level of expressed mRNA in the absence of chemical substance (yeast gene YGR010W, cultured two hours with substance): 13.6
- The level of expressed mRNA in the presence of chemical substance/The level of expressed mRNA in the absence of chemical substance (yeast gene YGR043C): 10.9
- The level of expressed mRNA in the presence of chemical substance/The level of expressed mRNA in the absence of chemical substance (yeast gene YGR043C, cultured for two hours with substance): 10.9
- The level of expressed mRNA in the presence of chemical substance/The level of expressed mRNA in the absence of chemical substance (yeast gene YGR101W, cultured two hours with substance): 4.0
- The level of expressed mRNA in the presence of chemical substance/The level of expressed mRNA in the absence of chemical substance (yeast gene YGR110W, cultured two hours with substance): 6.4
- The level of expressed mRNA in the presence of chemical substance/The level of expressed mRNA in the absence of chemical substance (yeast gene YGR130C, cultured two hours with substance): 2.0
- The level of expressed mRNA in the presence of chemical substance/The level of expressed mRNA in the absence of chemical substance (yeast gene YGR134W, cultured two hours with substance): 2.4
- The level of expressed mRNA in the presence of chemical substance/The level of expressed mRNA in the absence of chemical substance (yeast gene YGR142W, cultured two hours with substance): 36.8
- The level of expressed mRNA in the presence of chemical substance/The level of expressed mRNA in the absence of chemical substance (yeast gene YGR146C, cultured two hours with substance): 0.8
- The level of expressed mRNA in the presence of chemical substance/The level of expressed mRNA in the absence of chemical substance (yeast gene YGR154C, cultured two hours with substance): 25.2
- The level of expressed mRNA in the presence of chemical substance/The level of expressed mRNA in the absence of chemical substance (yeast gene YGR197C (transport facilitation protein gene)): 16.7
- The level of expressed mRNA in the presence of chemical substance/The level of expressed mRNA in the absence of chemical substance (yeast gene YGR284C, cultured two hours with substance): 4.3
- The level of expressed mRNA in the presence of chemical substance/The level of expressed mRNA in the absence of chemical substance (yeast gene YHR016C, cultured two hours with substance): 2.8
- The level of expressed mRNA in the presence of chemical substance/The level of expressed mRNA in the absence of chemical substance (yeast gene YHR029C, cultured two hours with substance): 13.6
- The level of expressed mRNA in the presence of chemical substance/The level of expressed mRNA in the absence of chemical substance (yeast gene YHR138C, cultured two hours with substance): 5.3
- The level of expressed mRNA in the presence of chemical substance/The level of expressed mRNA in the absence of chemical substance (yeast gene YHR199C, cultured two hours with substance): 8.6
- The level of expressed mRNA in the presence of chemical substance/The level of expressed mRNA in the absence of chemical substance (yeast gene YHR209W, cultured two hours with substance): 2.9
- The level of expressed mRNA in the presence of chemical substance/The level of expressed mRNA in the absence of chemical substance (yeast gene YIL023C, cultured two hours with substance): 3.5
- The level of expressed mRNA in the presence of chemical substance/The level of expressed mRNA in the absence of chemical substance (yeast gene YIL024C, cultured two hours with substance): 2.2
- The level of expressed mRNA in the presence of chemical substance/The level of expressed mRNA in the absence of chemical substance (yeast gene YIL041W, cultured two hours with substance): 1.8
- The level of expressed mRNA in the presence of chemical substance/The level of expressed mRNA in the absence of chemical substance (yeast gene YIL087C, cultured two hours with substance): 2.4
- The level of expressed mRNA in the presence of chemical substance/The level of expressed mRNA in the absence of chemical substance (yeast gene YIL097W, cultured two hours with substance): 4.9
- The level of expressed mRNA in the presence of chemical substance/The level of expressed mRNA in the absence of chemical substance (yeast gene YIL117C, cultured two hours with substance): 2.3
- The level of expressed mRNA in the presence of chemical substance/The level of expressed mRNA in the absence of chemical substance (yeast gene YIL143C, DNA repair protein genes, cultured two hours with substance): 7.1
- The level of expressed mRNA in the presence of chemical substance/The level of expressed mRNA in the absence of chemical substance (yeast gene YIL153W, DNA repair protein genes, cultured two hours with substance): 4.3
- The level of expressed mRNA in the presence of chemical substance/The level of expressed mRNA in the absence of chemical substance (yeast gene YJL020C, cultured two hours with substance): 1.3
- The level of expressed mRNA in the presence of chemical substance/The level of expressed mRNA in the absence of chemical substance (yeast gene YJL057C, cultured two hours with substance): 7.3
- The level of expressed mRNA in the presence of chemical substance/The level of expressed mRNA in the absence of chemical substance (yeast gene YJL066C, cultured two hours with substance): 2.0
- The level of expressed mRNA in the presence of chemical substance/The level of expressed mRNA in the absence of chemical substance (yeast gene YJL082W, cultured two hours with substance): 1.4
